Assay results from ChEMBL document CHEMBL1130928 (Bioorg Med Chem Lett, 1998).

What was measured:
[1] = molecular target: Human immunodeficiency virus type 1 reverse transcriptase (Human immunodeficiency virus 1, UniProt Q72547, K103N); experiment: Compound was tested for inhibitory activity against HIV-1 mutant type reverse transcriptase (K103N)
[2] = molecular target: Human immunodeficiency virus type 1 reverse transcriptase (Human immunodeficiency virus 1, UniProt Q72547, P236L); experiment: Compound was tested for inhibitory activity against HIV-1 mutant type reverse transcriptase (P236L)
[3] = molecular target: Human immunodeficiency virus type 1 reverse transcriptase (Human immunodeficiency virus 1, UniProt Q72547, Y181C); experiment: Compound was tested for inhibitory activity against HIV-1 mutant type reverse transcriptase (Y181C)
[4] = molecular target: T1, Human immunodeficiency virus type 1 reverse transcriptase (Human immunodeficiency virus 1, UniProt Q72547); experiment: Compound was tested for inhibitory activity against HIV-1 wild type reverse transcriptase
[5] = molecular target: T1, Human immunodeficiency virus type 1 reverse transcriptase; experiment: Compound was tested for inhibitory activity against HIV-1 mutant type reverse transcriptase ([…])

SMILES | IC50 [1] [nM] | IC50 [2] [nM] | IC50 [3] [nM] | IC50 [4] [nM] | IC50 [5] [nM]
CCN1c2ncccc2C=Cc2cccnc21 | 1500 | 10 | 2500 | 40 | 230
C1=Cc2cccnc2N(C2CC2)c2ncccc21 | 630 | 10 | 960 | 20 | 150
